Laboratory results: patent US11013750B2, “Methods for treating and preventing nociceptive pain” (Aurin Biotech Inc., priority 2017, dated 2021)

What was measured:
[1] = test system: SH-SY5Y human neuroblastoma cells; assay: CH50 type analysis of inhibition of C3B cleavage, LDH release end point; format: cell-based; details: SH-SY5Y cells with undiluted human serum, 37° C. for 3 h, read-out: concentration to inhibit cell lysis by 50% (IC 50)
Procedure: To investigate efficacy of DAS, ATA, AQA and AHA and to inhibit C3B cleavage in SH-SY5Y human neuroblastoma cells, a CH50 type analysis was performed. Lactate dehydrogenase (LDH) release from dead cells was the end point. Reaction mixtures were: SH-SY5Y cells (10^5 cells in 1 ml DMEM/F-12 medium), 250 μL of undiluted human serum and 250 μL of DAS (3 μM), ATA (5 μM), AQA (5 μM), or AHA (5 μM). Mixtures were incubated at 37° C. for 3 h. 100 μl of cell free reaction mixtures were transferred to 96 well plates where they were mixed with a solution containing 15 μl lactate (36 mg/ml in PBS) plus 15 μl p-iodonitrotetrazolium violet (INT, 2 mg/ml in PBS). The enzymatic reaction was started by the addition of 15 μl of NAD^+/diaphorase solution (3 mg/ml NAD^+; 2.3 mg solid/ml diaphorase). After 1 h, optical densities were measured with a Model 450 microplate reader (Bio-Rad Laboratories, Richmond, Calif.) using a 490-nm filter. The amount of LDH released was expressed as a percentage of the value obtained in comparative wells where cells were 100% lysed by 0.1% Triton X-100.
Cell lysis was concentration dependent for each of the components investigated.

[2] = test system: C5a formation (C5 convertase); assay: Blockade of C5a formation, western blotting; format: cell-based; details: SH-SY5Y cells, 10% human serum, zymosan 100 μg/ml, C1 inhibitor 5 μg/ml, 37° C. 1 h
Procedure: To verify that each of the inhibitors was acting by inhibiting formation of C5 convertase, western blotting experiments were carried out. Results are shown in illustrated in FIG. 4. SH-SY5Y human neuroblastoma cells (2×10^5 cells in 1 ml DMEM/F-12 medium including 10% human serum) were incubated with zymosan (100 μg/ml) in 24 well plates at 37° C. for 1 h with or without DAS (3 μM), ATA (5 μM), AQA (5 μM), or AHA (5 μM). To inhibit any classical pathway activation, C1 inhibitor (5 μg/ml) was added. Supernatants were obtained by centrifugation at 4000 g for 30 min through 30 K-filters (Amicon® Ultra-15, 30,000 NMWL, Millipore, Billerica, Mass.). The filtrates were dried and added to the loading buffer for SDS-PAGE (50-mM Tris (pH 6.8), 0.1% SDS, 0.1% bromophenol blue, and 10% glycerol). Proteins were separated in 10% polyacrylamide gels at 70V for 6 h. The proteins were then transferred to polyvinylidene difluoride (PVDF) membranes (Bio-Rad, CA) at 30 mA for 2 hours. After washing with PBS-T, the membranes were treated with a mouse monoclonal C5/C5a antibody (Abcam, Cambridge Mass., 1/2000) for 15 hours at 4° C. The membranes were then treated with an appropriate HRP-conjugated anti-mouse IgG (A3682, 1/3,000; Sigma) for 3 hours at room temperature. The bands were visualized with an enhanced chemiluminescent system and exposure to photographic film (Hyperfilm ECL; Amersham Pharmacia Biotech, Little Chalfont, UK).

## O=C(O)C1=CC(=C(c2ccc(O)c(C(=O)O)c2)c2ccc(O)c(C(=O)O)c2)C=CC1=O [ATA, aurin tricarboxylic acid]
[1]
  IC50: 550 nM

## CC(=O)Oc1ccc(Cc2ccc(OC(C)=O)c(C(=O)O)c2)cc1C(=O)O [DAS, 5,5′-methylenebis(2-acetoxybenzoic) acid]
[1]
  IC50: 109 nM
[2]; 3 μM
  C5a formation (western blot): C5a was no longer formed

## aurin hexacarboxylic acid [AHA]
[1]
  IC50: 534 nM
[2]; 5 μM
  C5a formation (western blot): C5a was no longer formed

## aurin quadracarboxylic acid [AQA]
[1]
  IC50: 522 nM
[2]; 5 μM
  C5a formation (western blot): C5a was no longer formed
